Laboratory results as given in PubChem BioAssay AID330 (DTP/NCI, 2004).
“And” between values parts separate entries of the source, which are not always exact repeats. Equal values may be shown once. Inconclusive results and toxic doses are left out. How the source made its calls: active means survival T/C of 150% or more; inactive means T/C below 125% in these data. Peptide text beside a SMILES is read from it.

Test system: P388 leukemia ip, CD2F1 mice, survival T/C
Test: NCI In Vivo Anticancer Drug Screen. Data for tumor model P388 Leukemia (intraperitoneal) in CD2F1 (CDF1) mice
Settings: endpoint: median survival time, higher = longer survival
Outline: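 Mice carrying the transplanted tumor received test compound or vehicle. Survival was recorded in each group, and the value is the treated-group measurement divided by that of the vehicle-treated control group.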

[1] = dose: 12.5 mg/kg/injection, schedule: Q01DX009 (ip), vehicle: saline with Tween-80
[2] = dose: 25.0 mg/kg/injection, schedule: Q01DX009 (ip), vehicle: saline with Tween-80
[3] = dose: 50.0 mg/kg/injection, schedule: Q01DX009 (ip), vehicle: saline with Tween-80
[4] = dose: 100.0 mg/kg/injection, schedule: Q01DX009 (ip), vehicle: saline with Tween-80
[5] = dose: 200.0 mg/kg/injection, schedule: Q01DX009 (ip), vehicle: saline with Tween-80
[6] = dose: 60.0 mg/kg/injection, schedule: Q01DX005 (ip), vehicle: saline with Tween-80
[7] = dose: 120.0 mg/kg/injection, schedule: Q01DX005 (ip), vehicle: saline with Tween-80
[8] = dose: 240.0 mg/kg/injection, schedule: Q01DX005 (ip), vehicle: saline with Tween-80
[9] = dose: 400.0 mg/kg/injection, schedule: Q01DX009 (ip), vehicle: saline with Tween-80
[10] = dose: 60.0 mg/kg/injection, schedule: Q01DX005 (ip), vehicle: Klucel (hydroxypropylcellulose) (HPC)
[11] = dose: 120.0 mg/kg/injection, schedule: Q01DX005 (ip), vehicle: Klucel (hydroxypropylcellulose) (HPC)
[12] = dose: 240.0 mg/kg/injection, schedule: Q01DX005 (ip), vehicle: Klucel (hydroxypropylcellulose) (HPC)
[13] = dose: 100.0 mg/kg/injection, schedule: Q01DX001 (ip), vehicle: saline with Tween-80
[14] = dose: 50.0 mg/kg/injection, schedule: Q01DX005 (ip), vehicle: saline with Tween-80
[15] = dose: 25.0 mg/kg/injection, schedule: Q01DX009 (ip), vehicle: Klucel (hydroxypropylcellulose) (HPC)
[16] = dose: 50.0 mg/kg/injection, schedule: Q01DX009 (ip), vehicle: Klucel (hydroxypropylcellulose) (HPC)
[17] = dose: 100.0 mg/kg/injection, schedule: Q01DX009 (ip), vehicle: Klucel (hydroxypropylcellulose) (HPC)
[18] = dose: 50.0 mg/kg/injection, schedule: Q01DX005 (ip), vehicle: saline
[19] = dose: 100.0 mg/kg/injection, schedule: Q01DX005 (ip), vehicle: saline
[20] = dose: 6.25 mg/kg/injection, schedule: Q01DX009 (ip), vehicle: Klucel (hydroxypropylcellulose) (HPC)
[21] = dose: 100.0 mg/kg/injection, schedule: Q01DX005 (ip), vehicle: saline with Tween-80
[22] = dose: 200.0 mg/kg/injection, schedule: Q01DX005 (ip), vehicle: saline with Tween-80
[23] = dose: 200.0 mg/kg/injection, schedule: Q01DX009 (ip), vehicle: Klucel (hydroxypropylcellulose) (HPC)

Measured: T/C

C(=C\c1ccc2c(c1)OCO2)/c1ccncc1
inactive: dose: 25.0 mg/kg/injection, schedule: Q01DX005 (ip), vehicle: Klucel (hydroxypropylcellulose) (HPC) 102 % of control | dose: 50.0 mg/kg/injection, schedule: Q01DX005 (ip), vehicle: Klucel (hydroxypropylcellulose) (HPC) 94 % of control and 102 % of control | dose: 100.0 mg/kg/injection, schedule: Q01DX005 (ip), vehicle: Klucel (hydroxypropylcellulose) (HPC) 95 % of control and 101 % of control | dose: 200.0 mg/kg/injection, schedule: Q01DX005 (ip), vehicle: Klucel (hydroxypropylcellulose) (HPC) 100 % of control and 90 % of control

c1ccc(OCC(COc2ccccc2)(COc2ccccc2)COc2ccccc2)cc1
inactive: dose: 7.5 mg/kg/injection, schedule: Q01DX009 (ip), vehicle: saline with Tween-80 107 % of control | dose: 15.0 mg/kg/injection, schedule: Q01DX009 (ip), vehicle: saline with Tween-80 107 % of control | dose: 30.0 mg/kg/injection, schedule: Q01DX009 (ip), vehicle: saline with Tween-80 104 % of control

CCCCCCCCCCCCCCCCCCSC1=CC(=O)c2ccccc2C1=O
inactive: dose: 3.13 mg/kg/injection, schedule: Q01DX009 (ip), vehicle: saline with Tween-80 95 % of control | dose: 6.25 mg/kg/injection, schedule: Q01DX009 (ip), vehicle: saline with Tween-80 95 % of control | [1] 90 % of control | [2] 89 % of control | [3] 97 % of control

O=S(=O)(/N=C/c1ccccc1)c1ccc(Cl)cc1
inactive: [1] 101 % of control | [2] 101 % of control | [3] 95 % of control | [4] 96 % of control

CC(C)CC(N)C(=O)NC(Cc1cnc[nH]1)C(=O)O (stereo not drawn) (H-Leu-His-OH; configuration not given here)
inactive: dose: 60.0 mg/kg/injection, schedule: Q01DX005 (ip), vehicle: saline 97 % of control | dose: 120.0 mg/kg/injection, schedule: Q01DX005 (ip), vehicle: saline 106 % of control | dose: 240.0 mg/kg/injection, schedule: Q01DX005 (ip), vehicle: saline 104 % of control

CCCCN(C(=O)C(C)C)c1nc(C)co1
inactive: [3] 112 % of control | [4] 118 % of control | [5] 96 % of control

O=C1CSC=NN1c1ccccc1
inactive: [6] 102 % of control | [7] 92 % of control | [8] 108 % of control

Cc1c[n+]([O-])cc(=O)[nH]1
inactive: [4] 100 % of control | [5] 100 % of control | [9] 100 % of control

COC(=O)c1cc(-c2ccc(Cl)cc2)n2c(N)nnc2n1
inactive: [6] 100 % of control | [7] 100 % of control | [8] 104 % of control

NC12CCC(c3ccccc31)c1ccccc12
inactive: [10] 95 % of control | [11] 102 % of control | [12] 93 % of control

COC(=O)c1cn(C(C)=O)c(C)c1C(=O)OC
inactive: [13] 100 % of control | dose: 200.0 mg/kg/injection, schedule: Q01DX001 (ip), vehicle: saline with Tween-80 95 % of control | dose: 400.0 mg/kg/injection, schedule: Q01DX001 (ip), vehicle: saline with Tween-80 104 % of control

Cc1cc(N=[N+]=[N-])c2cc(C3CCCCC3)ccc2n1
inactive: [6] 94 % of control | [7] 93 % of control | [8] 92 % of control

CC(C)c1cc(C(=O)O)c(O)c(C(C)C)c1.CC(C)c1cc(C(=O)O)c(O)c(C(C)C)c1.[Cu]
inactive: dose: 12.5 mg/kg/injection, schedule: Q01DX005 (ip), vehicle: saline with Tween-80 96 % of control | dose: 25.0 mg/kg/injection, schedule: Q01DX005 (ip), vehicle: saline with Tween-80 90 % of control | [14] 98 % of control

Cc1nc(N(C)C)oc(=O)c1CCc1ccccc1
inactive: [6] 102 % of control | [7] 102 % of control | [8] 100 % of control

CN(C)C(C#N)C(=O)c1ccccc1 (stereo not drawn)
inactive: [15] 107 % of control | [16] 110 % of control | [17] 104 % of control

Cc1ccc2nc(N)nnc2c1
inactive: [16] 104 % of control | [17] 100 % of control

CCCCCCOC(=O)c1ccccc1OP(=O)(N(C)C)N(C)C
inactive: [18] 98 % of control | [19] 101 % of control

COc1ccc2nc(C)cc(N/N=C/c3ccc(N(CCCl)CCCl)cc3)c2c1
inactive: dose: 0.78 mg/kg/injection, schedule: Q01DX009 (ip), vehicle: Klucel (hydroxypropylcellulose) (HPC) 105 % of control | dose: 1.56 mg/kg/injection, schedule: Q01DX009 (ip), vehicle: Klucel (hydroxypropylcellulose) (HPC) 103 % of control | dose: 3.12 mg/kg/injection, schedule: Q01DX009 (ip), vehicle: Klucel (hydroxypropylcellulose) (HPC) 90 % of control and 98 % of control | [20] 90 % of control | [15] 90 % of control

CC(=O)Nc1ccc(C(=O)N/N=C/c2ccc(O)cc2)cc1
inactive: [18] 99 % of control | [19] 102 % of control | dose: 200.0 mg/kg/injection, schedule: Q01DX005 (ip), vehicle: saline 100 % of control

CC1CCCC/C1=N\N(C)C (stereo not drawn)
inactive: [6] 100 % of control | [7] 94 % of control

C[Si](C)(C)C1=CC[C@H]2C(=O)N(c3ccccc3)C(=O)[C@H]2C1=O
inactive: [14] 107 % of control | [21] 118 % of control | [22] 111 % of control

N#Cc1cc([N+](=O)[O-])cnc1Sc1ncccn1
inactive: [20] 108 % of control | dose: 12.5 mg/kg/injection, schedule: Q01DX009 (ip), vehicle: Klucel (hydroxypropylcellulose) (HPC) 104 % of control | [15] 90 % of control

COc1ccc(-c2nn(-c3ccccc3)cc2Oc2ccccc2O)cc1
inactive: [6] 104 % of control | [7] 102 % of control | [8] 96 % of control

Cc1ccccc1C(=O)NC1c2ccccc2Oc2ccccc21
inactive: [14] 100 % of control | [21] 100 % of control | [22] 100 % of control

CCCCCCCCCCC(=O)CC
inactive: [4] 104 % of control | dose: 100.0 mg/kg/injection, schedule: Q04DX003 (ip), vehicle: saline with Tween-80 100 % of control | [5] 104 % of control | dose: 200.0 mg/kg/injection, schedule: Q04DX003 (ip), vehicle: saline with Tween-80 100 % of control | [9] 109 % of control | dose: 400.0 mg/kg/injection, schedule: Q04DX003 (ip), vehicle: saline with Tween-80 100 % of control

O=C1NC(=O)C2(c3ccccc3)CCN1C2=O (stereo not drawn)
inactive: [16] 103 % of control | [17] 110 % of control | [23] 104 % of control

CC(C)NC(=O)c1ccccc1Sc1ccccc1CN(C)C(C)C
inactive: dose: 25.0 mg/kg/injection, schedule: Q01DX001 (ip), vehicle: saline with Tween-80 99 % of control | dose: 50.0 mg/kg/injection, schedule: Q01DX001 (ip), vehicle: saline with Tween-80 95 % of control | [13] 98 % of control and 102 % of control

O=C1C=C(c2ccccc2)Sc2ccccc2N1
inactive: [16] 95 % of control | [17] 88 % of control | [23] 87 % of control | dose: 400.0 mg/kg/injection, schedule: Q01DX009 (ip), vehicle: Klucel (hydroxypropylcellulose) (HPC) 94 % of control

COC1=C(Br)C(O)C2(C=C1Br)CC(C(=O)NCC(O)COc1c(Br)cc(C(O)CNC(=O)C3=NOC4(C=C(Br)C(OC)=C(Br)C4O)C3)cc1Br)=NO2 (stereo not drawn)
inactive: dose: 25.0 mg/kg/injection, schedule: Q01DX009 (ip), vehicle: saline + Tween-80 + alcohol 110 % of control | dose: 50.0 mg/kg/injection, schedule: Q01DX009 (ip), vehicle: saline + Tween-80 + alcohol 112 % of control and 92 % of control | dose: 100.0 mg/kg/injection, schedule: Q01DX009 (ip), vehicle: saline + Tween-80 + alcohol 112 % of control and 92 % of control | dose: 200.0 mg/kg/injection, schedule: Q01DX009 (ip), vehicle: saline + Tween-80 + alcohol 102 % of control

O=C(COc1ccc(Cl)cc1Cl)Nc1ccc(S(=O)(=O)O)cc1
inactive: [10] 104 % of control | [11] 104 % of control | [12] 98 % of control
